Our source for the IC50 values is US12215107B1, “Pyrazino[1′,2′:1,5]pyrazolo[4,3-c] [2,6] naphthyridine compounds as CK2 inhibitors” (KING FAISAL UNIVERSITY, priority 2024, dated 2025).

One assay deals with HL60 (leukemia). Nature of the assay: MTT in vitro cytotoxic activity assay, HL60. It is filed as cell-based. To be noted: Homo sapiens, HL-60, cells exposed for 96 hours, read-out: Cytotoxicity activity IC50 (50% inhibition of cell proliferation). On the procedure: (§1) Compounds 1-16 were screened for their in vitro cytotoxic activity utilizing a 3-(4,5-dimethyl-thiazol-2-yl)-2,5-diphenyltetrazolium bromide (MTT) assay against selected cancer human cell lines consisting of PC3 (prostate), HCT116 (colon), A375 (melanoma), H1299 (lung), MIAPaCa-2 (pancreas), HL60 (leukemia), MCF7 (breast), MDA-MB-231 (breast) (T. Mosmann, J. Immunol. Meth., 1983, 65, 55-63). The cells were cultured at 37° C. in RMPI1640 medium supplemented with 10% fetal bovine serum, 50 IU/mL penicillin, and 50 μg/mL streptomycin in a 5% CO2 incubator. All cells were sub-cultured 3 times/week by trypsinisation. Viable cells were seeded and allowed to adhere for 12 hours before a test drug was added in 96-well plates at an initial density of 1.0×10^5 cells/mL. Tumor cell lines were separately exposed to various concentrations of the tested compounds followed by incubation at a temperature of 37° C. during 96 hours inside a medium of fresh RMPI 1640. Cells were subsequently incubated at 37° C. using MTT at 0.5 mg/mL during 4 hours. After removal of supernatant, formazan crystals were dissolved in isopropanol and the optical density was measured at 570 nm. CX-4945 was used as a positive control.

For a further assay, the system named is A375 (melanoma). Briefly: MTT in vitro cytotoxic activity assay, A375. It is filed as cell-based. To be noted: Homo sapiens, A-375, cells exposed for 96 hours, read-out: Cytotoxicity activity IC50 (50% inhibition of cell proliferation). The method, then: as §1
The subject of a further assay is MIAPaCa-2 (pancreas). Nature of the assay: MTT in vitro cytotoxic activity assay, MIAPaCa-2. It is filed as cell-based. To be noted: Homo sapiens, MIA PaCa-2, cells exposed for 96 hours, read-out: Cytotoxicity activity IC50 (50% inhibition of cell proliferation). The method, then: as §1
In another assay the test system is PC3 (prostate). Nature of the assay: MTT in vitro cytotoxic activity assay, PC3. It is filed as cell-based. To be noted: Homo sapiens, Prostate cell, cells exposed for 96 hours, read-out: Cytotoxicity activity IC50 (50% inhibition of cell proliferation). On the procedure:
as §1

The test system of a further assay is HCT116 (colon). Briefly: MTT in vitro cytotoxic activity assay, HCT116. Format: cell-based. To be noted: Homo sapiens, HCT-116, cells exposed for 96 hours, read-out: Cytotoxicity activity IC50 (50% inhibition of cell proliferation). On the procedure:
as §1

In a further assay the test system is MCF7 (breast). Briefly: MTT in vitro cytotoxic activity assay, MCF7. Format: cell-based. To be noted: Homo sapiens, cells exposed for 96 hours, read-out: Cytotoxicity activity IC50 (50% inhibition of cell proliferation). The method, then:
as §1

The target of assay [1] is T1, recombinant human CK2 (RRββ-holoenzyme) (Homo sapiens, UniProt P68400).
T1 construct: purchased Millipore
T1 sequence (P68400 whole entry): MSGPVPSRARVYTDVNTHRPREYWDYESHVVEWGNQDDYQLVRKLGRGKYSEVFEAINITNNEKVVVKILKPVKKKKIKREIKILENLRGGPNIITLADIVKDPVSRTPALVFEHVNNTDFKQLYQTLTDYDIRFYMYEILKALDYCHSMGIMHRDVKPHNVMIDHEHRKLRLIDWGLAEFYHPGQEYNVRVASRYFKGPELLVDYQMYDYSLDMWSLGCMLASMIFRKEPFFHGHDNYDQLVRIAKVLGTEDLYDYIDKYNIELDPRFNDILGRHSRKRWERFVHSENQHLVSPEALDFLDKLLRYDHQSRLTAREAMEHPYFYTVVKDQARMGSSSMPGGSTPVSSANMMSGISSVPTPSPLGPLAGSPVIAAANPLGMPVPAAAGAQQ
T1 sequence (P67870 whole entry partner): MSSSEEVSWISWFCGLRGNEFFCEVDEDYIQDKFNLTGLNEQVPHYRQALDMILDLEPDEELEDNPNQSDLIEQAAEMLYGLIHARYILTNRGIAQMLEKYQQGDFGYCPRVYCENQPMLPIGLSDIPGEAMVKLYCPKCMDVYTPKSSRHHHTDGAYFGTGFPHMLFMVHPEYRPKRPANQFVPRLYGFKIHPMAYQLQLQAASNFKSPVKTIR
Nature of the assay: CK2 Kinase Assay (33P-ATP, filter plate). It is filed as biochemical. To be noted: final ATP concentration 15 μM, 10 minutes at 30° C.; read-out: protein kinase CK2 IC50. The method, then:
CK2 Kinase Assay was conducted using the protocol as described in Pierre F. et al; J. Med. Chem. 2011, 54, 635-654. The tested compounds in aqueous solution were added at a volume of 10 μL to a reaction mixture comprising 10 μL of assay dilution buffer (ADB; 20 mM MOPS, pH 7.2, 25 mM β-glycerol phosphate, 5 mM EGTA, 1 mM sodium orthovanadate, and 1 mM dithiothreitol), 10 μL of substrate peptide (RRRDDDSDDD, dissolved in ADB at a concentration of 1 mM), 10 μL of recombinant human CK2 (RRββ-holoenzyme, 25 ng dissolved in ADB; Millipore). Reactions were initiated by the addition of 10 μL of ATP solution (90% 75 mMMgCl2, 75 μM ATP (final ATP concentration: 15 μM) dissolved in ADB; 10% [γ-33P] ATP (stock 1 mCi/100 μL; 3000 Ci/mmol (Perkin-Elmer) and maintained for 10 minutes at 30° C. The reactions were quenched with 100 μL of 0.75% phosphoric acid and then transferred to and filtered through a phosphor cellulose filter plate (Millipore). After washing each well five times with 0.75% phosphoric acid, the plate was dried under vacuum for 5 min and, following the addition of 15 μL of scintillation fluid to each well, the residual radioactivity was measured using a Wallac […]. The IC50 values were derived from eight concentrations of test inhibitors.

The test system of another assay is H1299 (lung). Nature of the assay: MTT in vitro cytotoxic activity assay, H1299. Format: cell-based. To be noted: Homo sapiens, NCI-H1299, cells exposed for 96 hours, read-out: Cytotoxicity activity IC50 (50% inhibition of cell proliferation). The method, then:
as §1

Another assay relates to MDA-MB-231 (breast). Briefly: MTT in vitro cytotoxic activity assay, MDA-MB-231. Format: cell-based. To be noted: Homo sapiens, cells exposed for 96 hours, read-out: Cytotoxicity activity IC50 (50% inhibition of cell proliferation). On the procedure:
as §1

Regarding `Clc1cccc(Nc2nc3c(nn4ccncc34)c3cnccc23)c1` [Compound (1), N-(3-chlorophenyl)pyrazino[1′,2′:1,5]pyrazolo[4,3-c][2,6]naphthyridin-5-amine], the IC50 worked out at 3700 nM in the assay on HL60 (leukemia); 3200 nM in the assay on A375 (melanoma); 1000 nM with MIAPaCa-2 (pancreas); 1100 nM in the assay with PC3 (prostate); 1500 nM in the assay with HCT116 (colon); 4900 nM in the assay with MCF7 (breast). Moreover, the figures for the IC50 (in assay [1]; in the assay with H1299 (lung); in the assay with MDA-MB-231 (breast)) were 22 nM, 1900 nM and 4100 nM, respectively.
